Measurements published in US20230053540A1, “TREATMENT OF LIVER INJURY” (Massachusetts Institute of Technology, priority 2019, published 2023).

Test system: hepatocytes
Test: Seq-Well scRNA-Seq of hepatocytes after APAP overdose (signature scores, DEG vs untreated)
Format: in vivo, mouse
[1] = cluster A96, DEG between treatment (APAP and PH)
[2] = fraction of A96 (APAP, 96 h) hepatocytes expressing the gene
[3] = hepatocyte cluster A96 (APAP, 96 h) vs all other clusters

## CC(=O)Nc1ccc(O)cc1 [APAP, acetaminophen]
[1]
  avg_logFC, gene Decr2: 0.3018
  avg_logFC, gene Dhdh: 0.2626
  avg_logFC, gene Etfdh: 0.2639
  avg_logFC, gene Etnppl: 0.3154
  avg_logFC, gene F5: 0.2566
  avg_logFC, gene Fmo1: 0.265
  avg_logFC, gene G0s2: 0.2656
  avg_logFC, gene G6pc: 0.2541
  avg_logFC, gene Gabarapl1: 0.2932
  avg_logFC, gene Gadd45b: 0.2598
  avg_logFC, gene Gas5: 0.2823
  avg_logFC, gene Gm4952: 0.2581
  avg_logFC, gene Gsta2: 0.311
  avg_logFC, gene Gstt3: 0.3026
  avg_logFC, gene Gyk: 0.3134
  avg_logFC, gene Hmgcl: 0.2744
  avg_logFC, gene Hmgcs1: 0.3251
  avg_logFC, gene Hpgd: 0.3412
  avg_logFC, gene Hsd17b7: 0.3028
  avg_logFC, gene Hsd17b10: 0.2802
  avg_logFC, gene Igfbp1: 0.2603
  avg_logFC, gene Kif1b: 0.2961
  avg_logFC, gene Lcat: 0.2616
  avg_logFC, gene Mia3: 0.2604
  avg_logFC, gene Ndufa3: 0.2743
  avg_logFC, gene Ndufa7: 0.26
  avg_logFC, gene Nr1i3: 0.3481
  avg_logFC, gene Oat: 0.4904
  avg_logFC, gene Pon1: 0.2899
  avg_logFC, gene Por: 0.2867
  avg_logFC, gene Ppp1r3b: 0.251
  avg_logFC, gene Ppp2r5a: 0.3505
  avg_logFC, gene Ptms: 0.2863
  avg_logFC, gene Pxmp4: 0.2555
  avg_logFC, gene Rdh16: 0.3477
  avg_logFC, gene Rdx: 0.2566
  avg_logFC, gene Rgn: 0.3686
  avg_logFC, gene Sc4mol: 0.3361
  avg_logFC, gene Slc4a4: 0.2977
  avg_logFC, gene Slc25a20: 0.2507
  avg_logFC, gene Slco1a4: 0.3049
  avg_logFC, gene Snord118: 0.3782
  avg_logFC, gene Tgoln1: 0.2809
  avg_logFC, gene Tmed5: 0.2523
  avg_logFC, gene Tobi: 0.2958
  avg_logFC, gene Tsc22d3: 0.3363
  avg_logFC, gene Zfp36l1: 0.2964
  avg_logFC, gene Zfp91: 0.2775
[2]
  pct.1 8430408G22Rik: 0.559
  pct.1 Acot12: 0.65
  pct.1 Agpat6: 0.743
  pct.1 Aplp2: 0.826
  pct.1 Apoc2: 0.901
  pct.1 Apol7a: 0.559
  pct.1 Aqp9: 0.801
  pct.1 Arl4a: 0.517
  pct.1 Brap: 0.642
  pct.1 Cd36: 0.299
  pct.1 Cebpb: 0.585
  pct.1 Cede107: 0.59
  pct.1 Ces1e: 0.71
  pct.1 Ces1f: 0.895
  pct.1 Cisd1: 0.781
  pct.1 Cpeb4: 0.527
  pct.1 Cpox: 0.634
  pct.1 Cxcl12: 0.635
  pct.1 D4Wsu53e: 0.597
  pct.1 D17Wsu92e: 0.771
  pct.1 Dcxr: 0.735
  pct.1 Dhdh: 0.734
  pct.1 Ech1: 0.917
  pct.1 Ehhadh: 0.78
  pct.1 Ephx1: 0.879
  pct.1 Etfdh: 0.811
  pct.1 Etnppl: 0.677
  pct.1 Fmo1: 0.606
  pct.1 Gclm: 0.865
  pct.1 Hamp2: 0.203
  pct.1 Hsd17b7: 0.56
  pct.1 Lcat: 0.886
  pct.1 Mocs2: 0.737
  pct.1 Mtdh: 0.649
  pct.1 Ndufa3: 0.737
  pct.1 Ndufb2: 0.731
  pct.1 Nfe2l2: 0.465
  pct.1 Oat: 0.653
  pct.1 Pabpc1: 0.766
  pct.1 Pdk1: 0.438
  pct.1 Prkd3: 0.682
  pct.1 Ptp4a2: 0.691
  pct.1 Rgn: 0.899
  pct.1 Sdhc: 0.76
  pct.1 Sdhd: 0.775
  pct.1 Slc4a4: 0.609
  pct.1 Slc25a10: 0.701
  pct.1 Tgoln1: 0.756
  pct.1 Tmed5: 0.714
  pct.1 Tmem106b: 0.727
  pct.1 Tob1: 0.649
  pct.1 Tsc22d3: 0.534
  pct.1 Usmg5: 0.59
  pct.1 Zfp91: 0.693
Gene Atp2a2, time point A96
  pct.1 Atp2a2: 0.64
Gene Atp2a2, time point A96 vs untreated (UT)
  avg_logFC Atp2a2: 0.2537
Gene Csad, time point A96
  pct.1 Csad: 0.843
Gene Csad, time point A96 vs untreated (UT)
  avg_logFC Csad: 0.2906
Gene Eef1b2, time point A96
  pct.1 Eef1b2: 0.743
Gene Eef1b2, time point A96 vs untreated (UT)
  avg_logFC Eef1b2: −0.2686
Gene Etnppl, time point A96
  pct.1 Etnppl: 0.677
Gene Etnppl, time point A96 vs untreated (UT)
  avg_logFC Etnppl: 0.407
Gene Fos, time point A96
  pct.1 Fos: 0.619
Gene Fos, time point A96 vs untreated (UT)
  avg_logFC Fos: 0.3272
Gene Ftl1, time point A96
  pct.1 Ftl1: 0.363
Gene Ftl1, time point A96 vs untreated (UT)
  avg_logFC Ftl1: −0.2798
Gene Gm20594, time point A96
  pct.1 Gm20594: 0.262
Gene Gm20594, time point A96 vs untreated (UT)
  avg_logFC Gm20594: −0.2928
Gene Hes6, time point A96
  pct.1 Hes6: 0.33
Gene Hes6, time point A96 vs untreated (UT)
  avg_logFC Hes6: −0.2781
Gene Hsd3b3, time point A96
  pct.1 Hsd3b3: 0.499
Gene Hsd3b3, time point A96 vs untreated (UT)
  avg_logFC Hsd3b3: −0.313
Gene Hsd17b2, time point A96
  pct.1 Hsd17b2: 0.614
Gene Hsd17b2, time point A96 vs untreated (UT)
  avg_logFC Hsd17b2: −0.3005
Gene Hsd17b13, time point A96
  pct.1 Hsd17b13: 0.755
Gene Hsd17b13, time point A96 vs untreated (UT)
  avg_logFC Hsd17b13: 0.2678
Gene Ifi27, time point A96
  pct.1 Ifi27: 0.325
Gene Ifi27, time point A96 vs untreated (UT)
  avg_logFC Ifi27: −0.2572
Gene Ifitm3, time point A96
  pct.1 Ifitm3: 0.742
Gene Ifitm3, time point A96 vs untreated (UT)
  avg_logFC Ifitm3: −0.2797
Gene Krt8, time point A96
  pct.1 Krt8: 0.47
Gene Krt8, time point A96 vs untreated (UT)
  avg_logFC Krt8: −0.265
Gene Malat1, time point A96
  pct.1 Malat1: 0.702
Gene Malat1, time point A96 vs untreated (UT)
  avg_logFC Malat1: −0.4647
Gene Mup2, time point A96
  pct.1 Mup2: 0.256
Gene Mup2, time point A96 vs untreated (UT)
  avg_logFC Mup2: −0.5008
Gene Mup4, time point A96
  pct.1 Mup4: 0.824
Gene Mup4, time point A96 vs untreated (UT)
  avg_logFC Mup4: −0.6934
Gene Naa50, time point A96
  pct.1 Naa50: 0.517
Gene Naa50, time point A96 vs untreated (UT)
  avg_logFC Naa50: 0.2658
Gene Ndufb11, time point A96
  pct.1 Ndufb11: 0.669
Gene Ndufb11, time point A96 vs untreated (UT)
  avg_logFC Ndufb11: −0.2832
Gene Nme1, time point A96
  pct.1 Nme1: 0.561
Gene Nme1, time point A96 vs untreated (UT)
  avg_logFC Nme1: −0.2724
Gene Oat, time point A96
  pct.1 Oat: 0.653
Gene Oat, time point A96 vs untreated (UT)
  avg_logFC Oat: 0.3439
Gene Pnpla7, time point A96
  pct.1 Pnpla7: 0.455
Gene Pnpla7, time point A96 vs untreated (UT)
  avg_logFC Pnpla7: −0.3397
Gene Prdx4, time point A96
  pct.1 Prdx4: 0.517
Gene Prdx4, time point A96 vs untreated (UT)
  avg_logFC Prdx4: −0.314
Gene Psmb1, time point A96
  pct.1 Psmb1: 0.703
Gene Psmb1, time point A96 vs untreated (UT)
  avg_logFC Psmb1: −0.2659
Gene Psmb5, time point A96
  pct.1 Psmb5: 0.241
Gene Psmb5, time point A96 vs untreated (UT)
  avg_logFC Psmb5: −0.2633
Gene Rarres1, time point A96
  pct.1 Rarres1: 0.274
Gene Rarres1, time point A96 vs untreated (UT)
  avg_logFC Rarres1: −0.2874
Gene Rgn, time point A96
  pct.1 Rgn: 0.899
Gene Rgn, time point A96 vs untreated (UT)
  avg_logFC Rgn: 0.2614
Gene Rpl32, time point A96
  pct.1 Rpl32: 0.689
Gene Rpl32, time point A96 vs untreated (UT)
  avg_logFC Rpl32: −0.2631
Gene Rpl41, time point A96
  pct.1 Rpl41: 0.274
Gene Rpl41, time point A96 vs untreated (UT)
  avg_logFC Rpl41: −0.2575
Gene Rps8, time point A96
  pct.1 Rps8: 0.378
Gene Rps8, time point A96 vs untreated (UT)
  avg_logFC Rps8: −0.2585
Gene Rps15, time point A96
  pct.1 Rps15: 0.468
Gene Rps15, time point A96 vs untreated (UT)
  avg_logFC Rps15: −0.2545
Gene Selk, time point A96
  pct.1 Selk: 0.393
Gene Selk, time point A96 vs untreated (UT)
  avg_logFC Selk: −0.2647
Gene Serp1, time point A96
  pct.1 Serp1: 0.671
Gene Serp1, time point A96 vs untreated (UT)
  avg_logFC Serp1: −0.2992
Gene Ubb, time point A96
  pct.1 Ubb: 0.379
Gene Ubb, time point A96 vs untreated (UT)
  avg_logFC Ubb: −0.2685
Gene mmu-mir-6236, time point A96
  pct.1 mmu-mir-6236: 0.801
Gene mmu-mir-6236, time point A96 vs untreated (UT)
  avg_logFC mmu-mir-6236: −0.6272
Gene mt-Atp6, time point A96
  pct.1 mt-Atp6: 0.43
Gene mt-Atp6, time point A96 vs untreated (UT)
  avg_logFC mt-Atp6: −0.3955
[3]
  avg_logFC 8430408G22Rik: 0.2774
  avg_logFC Acot12: 0.2802
  avg_logFC Agpat6: 0.2753
  avg_logFC Aplp2: 0.2569
  avg_logFC Apoc2: 0.2872
  avg_logFC Apol7a: 0.3029
  avg_logFC Aqp9: 0.2901
  avg_logFC Arl4a: 0.2934
  avg_logFC Brap: 0.2572
  avg_logFC Cd36: 0.2782
  avg_logFC Cebpb: 0.2515
  avg_logFC Cede107: 0.2626
  avg_logFC Ces1e: 0.3109
  avg_logFC Ces1f: 0.2782
  avg_logFC Cisd1: 0.282
  avg_logFC Cpeb4: 0.2994
  avg_logFC Cpox: 0.2562
  avg_logFC Crls1: 0.255
  avg_logFC Cxcl12: 0.3005
  avg_logFC D4Wsu53e: 0.2925
  avg_logFC D17Wsu92e: 0.258
  avg_logFC Dcxr: 0.2522
  avg_logFC Dhdh: 0.2593
  avg_logFC Ech1: 0.2509
  avg_logFC Ehhadh: 0.2545
  avg_logFC Ephx1: 0.252
  avg_logFC Etfdh: 0.2768
  avg_logFC Etnppl: 0.411
